# Test system: SERCA2
# Experiment: SERCA2 protein level by Western blot in cultured neonatal rabbit ventricular cardiomyocytes
# Assay type: cell-based
# Details: cultured neonatal rabbit ventricular cardiomyocytes (NRbVCM), 50 nM RU486 for 48 hours, normalized against GAPDH
# Procedure: Protein level of SERCA2 was analyzed by western blots. All measurements were normalized against GAPDH. Bar graphs represent the averages of three independent experiments plus S.D. in arbitrary unit. * p<0.05. […] Ventricular cardiomyocytes were isolated in neonatal wild type NZW rabbits (3-5 days old, 70-110 g) with enzymatic techniques. The hearts were removed from euthanized rabbits and perfused for 5 to 7 minutes with a free solution containing 140 mM NaCl, 4.4 mM KCl, 1.5 mM MgCl2, 0.33 mM NaH2PO4, 16 mM taurine, 5 mM HEPES, 5 mM pyruvic acid, and 7.5 mM glucose. Subsequently, the hearts were perfused for 10 to 15 minutes with the same solution to which 0.3 mg/ml collagenase was added. The whole ventricles were cut off and minced, and the cells were dispersed in a solution containing 45 mM KCl, 65 mM K-glutamate, 3 mM MgSO4, 15 mM KH2PO4, 16 mM taurine, 10 mM HEPES, 0.5 mM EDTA, and 10 mM glucose (pH 7.3). The cell suspension was filtered through a 100-pm cell strainer and kept at room temperature for one hour. Thereafter, the cells were gradually recovered with MEM, in which Ca^2+ concentration was increased from 100 μM, 500 μM, 1000 μM and 1800 μM. Every well of six-well plate was seed one million cells, cultured in DMEM (Lonza 12-[MUT],) with 7% FBS and 100 μM of BrdU. Medium was changed every 24 to 48 hours. […] The SERCA2 is detected by anti-SERCA2 antibody. […]
smiles,measurement,value
"CC#C[C@]1(O)CC[C@H]2[C@@H]3CCC4=CC(=O)CCC4=C3[C@@H](c3ccc(N(C)C)cc3)C[C@@]21C [RU486, Mifepristone]",increase of the expression of SERCA2 polypeptides,60%
